{"source": "patent US11104703B2", "about": "“Binding compound and uses thereof” (priority 2016, dated 2021)", "key": {"[1]": {"target": "Trypsin", "conditions": "for pKi / k3 / k3/Ki: Trypsin; for pKi: PBS pH 7.4, 37° C., Cbz-Gly-Gly-Arg-NHMec 50 μM; for pKi / k3/Ki: Mean (±SD); for k3: first-order rate constant, mean; for k3/Ki: overall second-order rate constant; for over all second-order rate constant: trypsin", "procedure": "(§1) The ability of compounds of the invention to inhibit the activities of a range of commercially sourced proteases was assessed using steady state fluorogenic substrate assays. […] Assays were carried out in PBS, pH 7.4, at 37° C., in the presence of varying concentrations of inhibitor (10-50 μM) and a fixed concentration of substrate (50 μM). […] In this mechanism, the inhibitor I, binds the target protease to form an initial reversible complex EI, characterised by the inhibitor constant Ki. This is followed by the formation of an irreversible complex E-I from EI, characterised by the first-order rate constant k3."}, "[2]": {"system": "Chymotrypsin", "test": "Steady state fluorogenic substrate assay, inactivation of chymotrypsin", "conditions": "for k3: mean; for second-order rate constant: chymotrypsin", "procedure": "as §1"}, "[3]": {"target": "Thrombin (Homo sapiens, UniProt P00734)", "procedure": "as §1"}, "[4]": {"system": "ENaC", "format": "cell-based", "procedure": "All determinations were conducted using a TECC24 semiautomated system. Unlike the traditional Ussing chamber assays, where the short circuit current (ISC) is measured as an index of CFTR correction, the TECC-24 assay measures the equivalent current (IEQ)."}, "[5]": {"target": "Matriptase (Homo sapiens, UniProt Q9Y5Y6)", "sequence (Q9Y5Y6 whole entry, species assumed)": "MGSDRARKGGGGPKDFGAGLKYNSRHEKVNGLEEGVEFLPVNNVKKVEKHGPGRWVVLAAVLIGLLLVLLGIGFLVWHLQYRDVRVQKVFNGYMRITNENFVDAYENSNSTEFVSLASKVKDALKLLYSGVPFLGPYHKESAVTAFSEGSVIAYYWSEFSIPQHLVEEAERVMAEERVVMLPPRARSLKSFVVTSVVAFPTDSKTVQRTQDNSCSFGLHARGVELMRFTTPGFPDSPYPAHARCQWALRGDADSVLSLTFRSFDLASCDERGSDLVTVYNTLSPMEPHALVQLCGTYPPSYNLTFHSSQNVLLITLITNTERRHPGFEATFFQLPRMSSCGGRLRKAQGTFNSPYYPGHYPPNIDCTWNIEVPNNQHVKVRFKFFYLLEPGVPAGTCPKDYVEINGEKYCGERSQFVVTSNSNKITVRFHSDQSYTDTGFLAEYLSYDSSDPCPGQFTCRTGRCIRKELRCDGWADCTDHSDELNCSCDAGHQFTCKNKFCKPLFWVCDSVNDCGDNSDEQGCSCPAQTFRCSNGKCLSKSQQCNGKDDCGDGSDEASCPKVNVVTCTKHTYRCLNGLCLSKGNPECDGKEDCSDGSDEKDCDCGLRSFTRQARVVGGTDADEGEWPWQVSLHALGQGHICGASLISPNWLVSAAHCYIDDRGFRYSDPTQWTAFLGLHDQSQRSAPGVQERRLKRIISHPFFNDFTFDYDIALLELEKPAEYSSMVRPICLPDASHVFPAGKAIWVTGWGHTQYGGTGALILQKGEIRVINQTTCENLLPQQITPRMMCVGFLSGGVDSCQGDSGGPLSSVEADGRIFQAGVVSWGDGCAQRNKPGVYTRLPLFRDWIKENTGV", "conditions": "for k3/Ki: Mean (±SD); for k3: mean", "procedure": "as §1"}, "[6]": {"target": "Human Airways Trypsin-like protease (HAT) (Homo sapiens, UniProt O60235)", "sequence (O60235 whole entry)": "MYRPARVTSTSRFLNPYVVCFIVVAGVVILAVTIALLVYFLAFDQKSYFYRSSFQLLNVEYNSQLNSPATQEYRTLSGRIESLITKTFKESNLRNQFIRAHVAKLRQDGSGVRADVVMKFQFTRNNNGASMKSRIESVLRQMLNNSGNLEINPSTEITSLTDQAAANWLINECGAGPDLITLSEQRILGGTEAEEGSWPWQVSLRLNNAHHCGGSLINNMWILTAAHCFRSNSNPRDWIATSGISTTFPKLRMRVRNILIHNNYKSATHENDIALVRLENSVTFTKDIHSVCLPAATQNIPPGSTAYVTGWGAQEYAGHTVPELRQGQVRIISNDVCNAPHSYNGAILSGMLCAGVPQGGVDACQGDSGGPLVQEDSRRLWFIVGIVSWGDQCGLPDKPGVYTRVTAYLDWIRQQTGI", "conditions": "for k3/Ki: Mean (±SD); for k3: mean", "procedure": "as §1"}, "[7]": {"system": "primary CF Airway Epithelial Cells (AECs)", "conditions": "50 μM, 24 hours, n=3, vehicle control 3.5", "procedure": "Mucociliary clearance was quantified by measuring the velocity of microbeads apically applied to differentiated primary CF Airway Epithelial Cells (AECs). Compounds (50 μM) were added to the apical surface of primary CF AECs for a period of 24 hours. Mucociliary flow was then determined by tracking and measuring the velocity of apically applied microbeads across the CF AEC surface."}, "[8]": {"system": "trypsin-like serine proteases in CF Sol", "conditions": "10 μM; pooled CF sputum sol diluted ×4; substrate Cbz-Gly-Gly-Arg-AMC; 37° C.", "procedure": "Briefly, the spectrofluorimetic analysis was conducted on a sample of pooled supernatant recovered by centrifugation from expectorated cystic fibrosis sputum, which had been diluted ×4 with phosphate-buffered saline (sputum sol). […] The rate of hydrolysis of the substrate at 37° C. was monitored and inhibition as a % of an untreated control calculated."}, "[9]": {"system": "primary human airway epithelial (HAE) cell cultures", "conditions": "10 μM, Boc-QAR-AMC 50 μM, 37° C.", "procedure": "(§2) Inhibition of endogenous protease activities in CF sputum sol, was conducted as for Example 8 but in the presence of Boc-Gln-Ala-Arg-AMC (50 μM) as substrate. The rate of hydrolysis of the substrate at 37° C. was monitored and residual activity determined."}, "[10]": {"system": "endogenous protease activities in CF sputum sol", "conditions": "CF sputum sol from 8 individual CF patients; Boc-Gln-Ala-Arg-AMC 50 μM", "procedure": "as §2"}, "[11]": {"target": "Plasmin (Homo sapiens, UniProt P00747)", "sequence (P00747 97-810, species assumed)": "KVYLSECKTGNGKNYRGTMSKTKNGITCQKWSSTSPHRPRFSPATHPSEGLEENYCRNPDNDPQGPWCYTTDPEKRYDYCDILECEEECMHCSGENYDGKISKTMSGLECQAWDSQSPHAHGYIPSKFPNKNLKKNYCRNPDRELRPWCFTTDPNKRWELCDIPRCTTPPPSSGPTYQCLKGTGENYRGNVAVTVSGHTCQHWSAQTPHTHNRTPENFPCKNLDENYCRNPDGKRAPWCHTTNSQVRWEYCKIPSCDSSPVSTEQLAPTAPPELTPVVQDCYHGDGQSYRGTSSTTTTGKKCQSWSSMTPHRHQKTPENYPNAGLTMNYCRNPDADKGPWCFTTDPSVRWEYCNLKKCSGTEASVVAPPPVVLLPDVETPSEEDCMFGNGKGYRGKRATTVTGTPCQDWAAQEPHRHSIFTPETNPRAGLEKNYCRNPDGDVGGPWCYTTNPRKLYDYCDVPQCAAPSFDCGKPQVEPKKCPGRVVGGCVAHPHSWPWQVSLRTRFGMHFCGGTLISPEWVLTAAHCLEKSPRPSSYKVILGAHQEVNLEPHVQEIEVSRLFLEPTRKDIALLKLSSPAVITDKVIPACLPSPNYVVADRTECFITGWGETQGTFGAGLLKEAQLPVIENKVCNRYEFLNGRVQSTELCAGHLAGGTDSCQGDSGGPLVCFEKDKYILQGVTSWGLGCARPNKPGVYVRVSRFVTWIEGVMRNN", "test": "Steady state fluorogenic substrate assay, inactivation of plasmin", "procedure": "as §1"}}, "note": "pKi: −log10 of the molar value. Numbered stars: 1 amine (or outer) side, 2 acyl side, 3 side chain; on linkers, the order of the positions; unused ones are H or OH. Square brackets hold non-standard residues; d marks the D form. Side chains are listed from the residue outwards. Peptide text beside a SMILES is read from it. * marks the point of attachment. Biotin = O=C1N[C@H]2[C@H](CS[C@H]2CCCCC(=O)*)N1; Gly(N-(CH2)3-guanidino) = N=C(N)NCCCNCC(=O)O; Glutaryl = O=C(CCCC(=O)[*:2])[*:1]; X2 = O=C(Oc1c(F)c(F)c(F)c(F)c1F)*; X1 = O=C1CCC(=O)N1OC(=O)*; X3 = C#Cc1cccc(N*)c1; Ahx = NCCCCCC(=O)O"}
{"compound": "C#Cc1cccc(NC(=O)CCCC(=O)NCCCC[C@H](NC(=O)CCCCCNC(=O)CNC(=O)CNC(=O)CN(CCCNC(=N)N)C(=O)ON2C(=O)CCC2=O)C(=O)O)c1", "note": "[NAP884, N-6-(1-acetylene-3-amino-phenyl)-di-carboxy-pentane-Lys-NH-Ahx-Gly-Gly-N-(n-guanidino-propyl)-glycine succinimidyl carbamate] (X1-[Gly(N-(CH2)3-guanidino)]GG[Ahx]K([Glutaryl-X3])-OH)", "values": [{"measurement": "pKi", "setting": "[1]", "value": 6.38}, {"measurement": "k3", "setting": "[1]", "value": 0.528, "unit": "min⁻¹"}, {"measurement": "k3/Ki", "setting": "[1]", "value": "1.34 (±0.351) × 10^6 M^−1 min^−1"}]}
{"compound": "N=C(N)NCCCN(CC(=O)NCC(=O)NCC(=O)NCCCCCC(=O)N[C@@H](CCCCNC(=O)CCCC[C@@H]1SC[C@@H]2NC(=O)N[C@@H]21)C(=O)O)C(=O)ON1C(=O)CCC1=O", "note": "[NAP897, HO-Lys(Biotin)-Ahx-Gly-Gly-N-(n-guanidino-propyl)-glycine succinimidyl carbamate] (X1-[Gly(N-(CH2)3-guanidino)]GG[Ahx]K(Biotin)-OH)", "values": [{"measurement": "pKi", "setting": "[1]", "value": 6.18}, {"measurement": "k3", "setting": "[1]", "value": 0.7, "unit": "min⁻¹"}, {"measurement": "k3/Ki", "setting": "[1]", "value": "1.3 (±0.4) × 10^6 M^−1 min^−1"}]}
{"compound": "Biotin-PEG-NH-Gly-Gly-N-(benzyl)-glycine succinimidyl carbamate [NFP849]", "values": [{"measurement": "k3/Ki", "setting": "[2]; Chymotrypsin, Mean (±SD)", "value": "1.3 (±0.4) × 10^6 M^−1 min^−1"}, {"measurement": "pKi", "setting": "[2]; Chymotrypsin, Suc-Ala-Ala-Pro-Phe-NHMec 50 μM, Mean (±SD)", "value": 6.05}, {"measurement": "k3", "setting": "[2]; Chymotrypsin", "value": 0.8, "unit": "min⁻¹"}, {"measurement": "second-order rate constant", "setting": "[2]", "value": "1.28 (±0.442)×10^6 M^−1·min^−1"}]}
{"compound": "Biotin-PEG-NH—(N-benzyl-glycyl)-(D)-phenylalanyl-N-(n-guanidino-propyl)-glycine succinimidyl carbamate [NAT988]", "values": [{"measurement": "k3/Ki", "setting": "[3]; Mean (±SD)", "value": "4.7 (± 1.1) × 10^5 M^−1 min^−1"}, {"measurement": "k3", "setting": "[3]; mean", "value": 0.4, "unit": "min⁻¹"}]}
{"compound": "N=C(N)NCCCN(CC(=O)NCC(=O)NCC(=O)NCCCCCC(=O)N[C@@H](CCCCNC(=O)CCCC[C@@H]1SC[C@@H]2NC(=O)N[C@@H]21)C(=O)O)C(=O)Oc1c(F)c(F)c(F)c(F)c1F", "note": "[NAP966, HO-Lys(biotin)-Ahx-Gly-Gly-N-(n-guanidino-propyl)-glycine pentafluorophenyl carbamate] (X2-[Gly(N-(CH2)3-guanidino)]GG[Ahx]K(Biotin)-OH)", "values": [{"measurement": "pKi", "setting": "[1]", "value": 5.68}, {"measurement": "k3", "setting": "[1]", "value": 0.4, "unit": "min⁻¹"}, {"measurement": "k3/Ki", "setting": "[1]", "value": "1.9 (±0.25) × 10^5 M^−1 min^−1"}]}
{"compound": "Biotin-PEG-NH-Gly-Gly-N-(n-guanidino-propyl)-glycine succinimidyl carbamate [NAP858]", "values": [{"measurement": "ENaC activity (reduction of current)", "setting": "[4]; 50 μM, primary CF cultures, over a 90 minute period", "value": 36, "unit": "μA/cm2"}, {"measurement": "pKi", "setting": "[1]", "value": 6.31}, {"measurement": "k3", "setting": "[1]", "value": 0.299, "unit": "min⁻¹"}, {"measurement": "k3/Ki", "setting": "[1]", "value": "1.95 (±2.62) × 10^6 M^−1 min^−1"}, {"measurement": "over all second-order rate constant", "setting": "[1]", "value": "2.60 (±0.884)×10^6 M^−1·min^−1"}, {"measurement": "k3/Ki", "setting": "[5]", "value": "1.30 (±0.943) × 10^6 M^−1 min^−1"}, {"measurement": "k3", "setting": "[5]", "value": 0.314, "unit": "min⁻¹"}, {"measurement": "k3/Ki", "setting": "[6]", "value": "1.50 (±1.76) × 10^6 M^−1 min^−1"}, {"measurement": "k3", "setting": "[6]", "value": 0.464, "unit": "min⁻¹"}, {"measurement": "mucociliary clearance (velocity of apically applied microbeads)", "setting": "[7]", "value": 6.83, "unit": "μm/s"}, {"measurement": "inhibition of hydrolytic action of trypsin-like serine proteases in CF Sol", "setting": "[8]", "value": "complete inhibition"}, {"measurement": "extracellular tryptic activity", "setting": "[9]", "value": "reduced extracellular tryptic activity to a similar degree as that of QUB-TL1"}, {"measurement": "inhibition of endogenous protease activity, residual activity compared with QUB-TL1", "setting": "[10]", "value": "superior to QUB-TL1"}]}
{"compound": "Biotin-PEG-NH—N-(n-guanidino-propyl)-glycine-Gln-Sar-N-(n-guanidino-propyl)-glycine succinimidyl carbamate [NAP1099]", "values": [{"measurement": "k3", "setting": "[1]", "value": 0.354, "unit": "min⁻¹"}, {"measurement": "k3/Ki", "setting": "[1]", "value": "3.80 (±3.16) × 10^6 M^−1 min^−1"}, {"measurement": "k3/Ki", "setting": "[5]", "value": "8.52 (±9.05) × 10^6 M^−1 min^−1"}, {"measurement": "k3", "setting": "[5]", "value": 0.302, "unit": "min⁻¹"}, {"measurement": "k3/Ki", "setting": "[6]", "value": "3.71 (±2.89) × 10^6 M^−1 min^−1"}, {"measurement": "k3", "setting": "[6]", "value": 0.474, "unit": "min⁻¹"}, {"measurement": "extracellular tryptic activity", "setting": "[9]", "value": "reduced extracellular tryptic activity to a similar degree as that of QUB-TL1"}, {"measurement": "inhibition of endogenous protease activity, residual activity compared with QUB-TL1", "setting": "[10]", "value": "superior to QUB-TL1"}]}
{"compound": "Biotin-PEG-NH-Gly-Gly-N-(n-amino-butyl)-glycine succinimidyl carbamate [NKP830]", "values": [{"measurement": "pKi", "setting": "[1]", "value": 6.66}, {"measurement": "k3", "setting": "[1]", "value": 0.5, "unit": "min⁻¹"}, {"measurement": "k3/Ki", "setting": "[1]", "value": "2.7 (±0.5) × 10^6 M^−1 min^−1"}, {"measurement": "over all second-order rate constant", "setting": "[1]", "value": "2.74 (±0.547)×10^6 M^−1·min^−1"}, {"measurement": "pKi", "setting": "[11]; Boc-Val-Leu-Lys-NHMec 50 μM, Mean (±SD)", "value": 5.14}, {"measurement": "k3/Ki", "setting": "[11]; Mean (±SD)", "value": "6.2 (±0.9) × 10^4 M^−1 min^−1"}, {"measurement": "k3", "setting": "[11]; mean", "value": 0.4, "unit": "min⁻¹"}]}
{"compound": "Biotin-PEG-NH—(N-methyl glycyl)-(N-methyl glycyl)-N-(benzyl)-glycine succinimidyl carbamate [CG877]", "values": [{"measurement": "k3", "setting": "[2]; Chymotrypsin", "value": 0.7, "unit": "min⁻¹"}, {"measurement": "second-order rate constant", "setting": "[2]", "value": "2.46 (±0.214)×10^5 M^−1·min^−1"}]}
{"compound": "N=C(N)NC(=O)c1nc(Cl)c(N)nc1N", "note": "[amiloride, reference compound]", "values": [{"measurement": "inhibition of the observable current", "setting": "[4]; 10 μM, added to terminate the experiment, ENaC-expressing FRT cells", "value": "> 95", "unit": "%"}]}
